Results taken from article PMC7170498, “Targeted alpha therapy using astatine (^211At)-labeled phenylalanine: A preclinical study in glioma bearing mice” (Oncotarget, 2020).

Key:
C6 glioma cells = assay: In vitro cellular uptake and inhibition assay of ^211At-PA; type: cell-based; conditions: Rattus norvegicus, 20 mM BCH added 5 min before para-^211At-PA, compared to baseline, read-out: inhibition of ^211At-PA uptake by addition of BCH
Experimental: (§1) The C6 rat glioma cell line was provided by RIKEN BRC (Tsukuba, Japan) and cultured in F-12K medium (Gibco, Grand Island, NY, USA) containing 10% fetal bovine serum (FBS; Sigma-Aldrich). The U-87 MG human glioblastoma cell line was purchased from American Type Culture Collection (Manassas, VA, USA) and cultured in Modified Eagle’s medium (MEM; Sigma-Aldrich, St. Louis, MO, USA) containing 1% Non Essential Amino Acids (NEAA) + 1 mM Sodium Pyruvate (NaP) and 10% FBS. The GL261 murine glioma cell line was provided by the In Vivo Cellular and Molecular Imaging Lab at Vrije Universiteit, Brussels and cultured in high-glucose Dulbecco’s MEM (DMEM; Wako Pure Chemical, Osaka, Japan) containing 10% FBS. All cells were maintained at 37°C in a humidified incubator containing 5% CO2 and were washed with phosphate-buffered saline (PBS) and harvested with trypsin as necessary. LAT1 expression of these cells were confirmed in previous studies.
(§2) Initially, the cells were seeded onto a 24-well plate (density: 1 × 10^5/well) and cultured for 2 days. […] Counts per minute (CPM) of the samples were measured by gamma counter. The protein concentrations were measured using the BCA protein assay kit (FUJIFILM Wako Pure Chemical) and a plate reader (Multiskan FC, ThermoFisher Scientific, USA). […]

U-87MG cells = assay: as above; type: cell-based; conditions: Homo sapiens, 20 mM BCH added 5 min before para-^211At-PA, compared to baseline, read-out: inhibition of ^211At-PA uptake by addition of BCH
Experimental: as §1, §2

GL261 cells = assay: as above; type: cell-based, murine; conditions: Mus musculus, 20 mM BCH added 5 min before para-^211At-PA, compared to baseline, read-out: inhibition of ^211At-PA uptake by addition of BCH
Experimental: as §1, §2

thyroid gland = conditions: ^211At-astatide deastatinated from ^211At-PA; cited from earlier work
glioblastoma = test system: glioblastoma; parameters: method as in PMID 19269895; conditions: patients with glioblastoma after temozolomide therapy; cited from earlier work
[1] = Stability of the radiolabeled products in vials; type: physicochemical; conditions: for 24 hr
Experimental: Ascorbic acid, para-borono-L-phenylalanine (para-BPA), meta-borono-D, L-phenylalanine (meta-BPA), N-bromosuccinimide (NBS), and an injectable solution of 7% sodium hydrogen carbonate (7% NaHCO3) were purchased from Nacalai Tesque (Kyoto, Japan). For the experiments, 1 mg of para-BPA (or meta-BPA) was dissolved in 0.1 mL of 7% NaHCO3. Next, 0.1 mL of the 1% (w/v) para-BPA (or meta-BPA) solution and an aliquot of ^211At aqueous solution (10–20 MBq) were poured into a glass vial, stirred, and mixed with 30 μL of an aqueous solution of 0.4% (w/v) NBS for 30 min at room temperature. Finally, 30 μL of an aqueous solution of 3% (w/v) ascorbic acid was added to the mixture to stop the oxidation reaction, and the mixture was purified using solid-phase extraction. The purified para-^211At-PA or meta-^211At-PA was then analyzed using a high-performance liquid chromatography system (Shimazdu, Kyoto) equipped with a reverse-phase Cosmosil column (5C18 MS2, 150 mm × 4.6 mm; Nacalai Tesque). The products were eluted using a gradient solvent system (0–100% acetonitrile in water) for 20 min and then measured using a gamma-ray detector (GABI star, Elysia-raytest, Germany) and a UV detector at 254 nm.

[2] = Biodistribution and iodine blocking effect in normal ICR mice; type: in vivo, mouse; conditions: for residence time in major organs (meta- versus para-): intravenous
Experimental: For the biodistribution study, para- or meta-^211At-PA (0.53 ± 0.04 MBq) was injected into normal male ICR mice (n = 18, 9 weeks old, body weight = 37.7 ± 1.3 g). The mice were sacrificed by euthanasia at 1, 3, and 24 hr post-injection. For the iodine blocking study, normal male ICR mice (n = 6, 9 weeks old, body weight = 37.9 ± 0.9 g) were fed with 2-week iodine-restricted diet. […] The mice were euthanized 3 hr post-administration of para-^211At-PA (0.5 MBq) and dissected.
The major organs (brain, thyroid gland, salivary gland, heart, lung, esophagus, liver, stomach, small intestine, large intestine, kidney, adrenal gland, pancreas, spleen, and testes) and the blood were collected from each mouse, and the radioactivity and weight of each sample were measured using an AccuFlex γ7000 device (Hitachi, Aloka, Japan). Radioactivity counts were normalized by calibration with a standard solution of ^211At. The residence time (hr) was calculated using the trapezoidal method without decay correction.

[3] = target: T1, L-type amino acid transporter-1 (LAT1) (Homo sapiens, UniProt Q01650); assay: Transport of para-^211At-PA into Xenopus oocytes expressing LAT1 (compared with LAT2); type: cell-based; conditions: Xenopus oocytes co-expressing 4F2hc; choline buffer; 5, 15, 45 min
T1 construct: expressed in transfected cells; host or cells: defolliculated Xenopus oocytes injected with polyadenylated cRNA (25 ng/oocyte)
T1 sequence (Q01650 whole entry): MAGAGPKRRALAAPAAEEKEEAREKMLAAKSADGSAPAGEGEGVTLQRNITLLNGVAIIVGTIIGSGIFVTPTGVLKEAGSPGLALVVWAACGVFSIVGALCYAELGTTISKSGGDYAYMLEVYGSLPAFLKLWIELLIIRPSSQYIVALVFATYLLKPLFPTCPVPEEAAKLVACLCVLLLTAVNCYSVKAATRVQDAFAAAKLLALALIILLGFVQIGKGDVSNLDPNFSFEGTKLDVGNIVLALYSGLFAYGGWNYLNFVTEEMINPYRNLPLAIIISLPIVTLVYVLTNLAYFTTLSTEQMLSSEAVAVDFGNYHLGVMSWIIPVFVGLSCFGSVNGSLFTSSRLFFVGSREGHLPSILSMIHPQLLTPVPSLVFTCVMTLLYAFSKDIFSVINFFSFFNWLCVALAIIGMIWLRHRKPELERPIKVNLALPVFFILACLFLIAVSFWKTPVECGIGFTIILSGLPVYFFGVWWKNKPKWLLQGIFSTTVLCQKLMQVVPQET
T1 sequence (P08195 102-630 partner): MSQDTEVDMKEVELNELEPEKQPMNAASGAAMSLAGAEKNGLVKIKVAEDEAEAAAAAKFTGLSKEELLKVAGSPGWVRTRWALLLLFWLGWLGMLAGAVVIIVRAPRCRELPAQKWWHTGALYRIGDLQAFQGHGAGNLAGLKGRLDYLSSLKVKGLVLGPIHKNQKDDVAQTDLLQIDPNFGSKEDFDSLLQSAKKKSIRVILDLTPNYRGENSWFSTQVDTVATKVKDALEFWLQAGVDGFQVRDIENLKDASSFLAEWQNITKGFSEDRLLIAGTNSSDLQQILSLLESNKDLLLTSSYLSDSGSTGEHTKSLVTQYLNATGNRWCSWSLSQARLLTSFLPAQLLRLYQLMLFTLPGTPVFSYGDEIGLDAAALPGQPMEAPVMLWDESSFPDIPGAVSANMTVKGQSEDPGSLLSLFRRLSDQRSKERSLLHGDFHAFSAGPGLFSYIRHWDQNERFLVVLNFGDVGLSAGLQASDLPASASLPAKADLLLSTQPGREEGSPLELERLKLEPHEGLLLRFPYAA
Experimental: Supplementary Figure 1 lists the cDNAs of human transporters used in this study. First, cRNAs were synthesized in vitro from linearized plasmids using the mMessage mMachine Kit, polyadenylated with a Poly (A) Tailing Kit, and purified with a MEGAclear Kit (all kits: ThermoFisher Scientific, Waltham, MA, USA) according to the manufacturer’s protocols. Next, defolliculated Xenopus oocytes were injected with polyadenylated cRNA (25 ng/oocyte) to induce expression. An equimolar amount of 4F2hc cRNA was co-injected to ensure the functional expression of LAT1 and LAT2 [24–26].
Amino acid transport was measured in the oocytes 2–4 days after cRNA injection, as previously described. Briefly, the oocytes were incubated at room temperature with 500 μL of uptake buffer (choline uptake solution: 100 mM (CH3)3N (Cl) CH2CH2OH, 2 mM KCl, 1.8 mM CaCl2.2H2O, 1 mM MgCl2, 5 mM HEPES, pH 7.5) containing ^211At-PA (approximately 10kBq/oocyte). Radioactivity was determined using a gamma counter. Nine to 11 oocytes were used for each transport measurement. Two separate experiments were performed using different batches of oocytes to confirm the reproducibility of the results.

C6 glioma xenograft [4] = assay: Planar imaging and tumor dosimetry in C6 glioma-bearing mice; type: in vivo, mouse
Experimental: (§3) All animal experiments were performed in compliance with the guidelines of the Institute of Experimental Animal Sciences. The protocol was approved by the Animal Care and Use Committee of the Osaka University Graduate School of Medicine. Normal ICR, normal C57BL/6, and nude mice (male) were purchased from Japan SLC Inc. (Hamamatsu, Japan). All animals were housed under a 12-h light/12-hr dark cycle, and given free access to food and water. C6 glioma cells (5.0 × 10^6 cells) or GL-261 cells (1.0 × 10^7 cells) were suspended in 100 μL of culture medium and Matrigel (1:1 ratio; BD Biosciences, Franklin Lakes, NJ, USA). Tumor xenograft and allograft models were prepared via the subcutaneous injection of this C6 glioma cell suspension into each immunodeficient nude mouse (n = 12) and the GL-261 cell suspension into each immunocompetent C57BL/6 mouse (n = 12), respectively.
(§4) Para-^211At-PA was injected into mice bearing C6 glioma xenografts (n = 9; 15 weeks old; body weight = 23.8 ± 1.2 g) and GL261 allografts (n = 7; 8 weeks old; body weight = 23.6 ± 1.2 g) at 23 and 20–21 days after implantation, respectively. […] The tumor uptake was calculated as the percent injected dose (%ID). […] The tumor sizes (mm^3) were monitored using a caliper, calculated using the following elliptical sphere model equation, and compared between the injected and control groups of mice.

C6 glioma xenograft [5] = assay: Treatment effect in C6 glioma xenograft mice; type: in vivo, mouse; conditions: for tumor size ratio (relative to the control): 3 weeks post-injection
Experimental: as §3
Para-^211At-PA was injected into mice bearing C6 glioma xenografts (n = 9; 15 weeks old; body weight = 23.8 ± 1.2 g) and GL261 allografts (n = 7; 8 weeks old; body weight = 23.6 ± 1.2 g) at 23 and 20–21 days after implantation, respectively. C6 glioma xenograft mice were divided into four groups according to the injected dose: 1 MBq (n = 3, 1.19 ± 0.05 MBq), 0.5 MBq (n = 3, 0.55 ± 0.02 MBq), 0.1 MBq (n = 3, 0.09 ± 0.03 MBq), and control mice without para-^211At-PA administration (n = 3). GL261 allograft mice were divided into two groups: 1 MBq (n = 7, 1.07 ± 0.07 MBq) and control (n = 5). Planar imaging was performed using a gamma camera system (E-cam, Siemens) at 30 min and 3 hr after para-^211At-PA administration. This system targeted the X-rays emitted from the daughter nuclide, ^211Po (energy window: 79 keV ± 20%) (6). Image analysis was performed using AMIDE software (ver. 1.0.4). The tumor uptake was calculated as the percent injected dose (%ID). The absorbed dose (Gy) in the tumor was estimated according to a previous report with the normalization to the tumor volume in the calculation process. The tumor sizes (mm^3) were monitored using a caliper, calculated using the following elliptical sphere model equation, and compared between the injected and control groups of mice.
V = 4/3*π*a^2*b (V: volume of the tumor (mm^3), a: shorter radius (mm) and b: longer radius (mm))

GL261 allograft = assay: Treatment effect in GL261 allograft mice; type: in vivo, mouse
Experimental: as §3
as §4, with “mice. […]” for “mice.”

[6] = test system: intracranial glioblastomas; parameters: method as in PMID 24036694; conditions: intravenous treatment; rats with intracranial glioblastomas; cited from earlier work
[7] = NaI 10 mg/kg i.v. 24 and 3 hr before, 3 hr post-administration

NC1(C(=O)O)CC2CCC1C2 (stereo not drawn) [BCH, 2-aminobicyclo-(2,2,1)-heptane-2-carboxylic acid]
inhibition at 20000 µM (C6 glioma cells): 12.2 ± 0.8%
inhibition at 20000 µM (U-87MG cells): 27.6 ± 1.1%
inhibition at 20000 µM (GL261 cells): 12.6 ± 2%

[211AtH] [^211At-astatide]
reduction of thyroid uptake following pre-administration of iodine (thyroid gland): 80%

Cn1nnc2c(C(N)=O)ncn2c1=O [temozolomide]
5-year overall survival rate (glioblastoma): 9.8%

N[C@@H](Cc1cccc([211At])c1)C(=O)O [meta-^211At-PA]
stability in vials [1]: remained stable
residence time in major organs (meta- versus para-) [2]: comparable results

N[C@@H](Cc1ccc([211At])cc1)C(=O)O [para-^211At-PA, ^211At-para-astato-L-PA]
transport into oocytes by LAT1 compared with LAT2 [3]: Significantly greater transport
stability in vials [1]: remained stable
accumulation in the heart and spleen with iodine blocking [2, 7]: increased accumulation
decrease in accumulation in the thyroid by iodine blocking [2, 7]: 81%
residence time in major organs (meta- versus para-) [2]: comparable results
tumor uptake (planar imaging) (C6 glioma xenograft [4]; 30 min post-injection): 3.7 ± 0.8 %ID
tumor uptake (planar imaging) (C6 glioma xenograft [4]; 3 hr post-injection): 1.5 ± 0.2 %ID
tumor size ratio (relative to the control) (C6 glioma xenograft [5]; 0.1 MBq): 0.60
tumor size ratio (relative to the control) (C6 glioma xenograft [5]; 0.5 MBq): 0.40
tumor size ratio (relative to the control) (C6 glioma xenograft [5]; 1 MBq): 0.25
changes in body weights versus control mice (C6 glioma xenograft [5]; C6 glioma xenograft model): No significant differences
relative tumor size (GL261 allograft; 1 MBq, day 32): 0.24
changes in body weights versus control mice (GL261 allograft; GL261 allograft model): No significant differences
health conditions and survival durations [6]: improved the health conditions and enhanced the survival durations
